Source: the supplement of paper PMC8253809

What was measured:
DIPGX7 = H3.3 K27M diffuse intrinsic pontine glioma line; assay: growth inhibition relative to DMSO (0) and positive control (1) (fraction); higher = more growth inhibition
Experimental: (§1)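 Paxalisib (GDC0084) x mirdametinib (PD0325901) dose matrix on pHGG cell lines and astrocyte controls, 7 days, adherent 384-well. CellTiter-Glo RLU was normalised (no log2) to fractional activity between DMSO (0) and the positive control (1). Each combination was tested in two plate orientations.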

iASTRO = astrocyte control; assay: as above
Experimental: as §1

O=C(NOC[C@H](O)CO)c1ccc(F)c(F)c1Nc1ccc(I)cc1F + CC1(C)OCCn2c1nc1c(N3CCOCC3)nc(-c3cnc(N)nc3)nc12 [GDC0084]
growth inhibition
Conditions | compound 1 concentration 0.009766 µM | compound 1 concentration 0.01953 µM | compound 1 concentration 0.03906 µM | compound 1 concentration 0.07812 µM | compound 1 concentration 0.15625 µM | compound 1 concentration 0.3125 µM | compound 1 concentration 0.625 µM | compound 1 concentration 1.25 µM | compound 1 concentration 5 µM | compound 1 concentration 20 µM
DIPGX7, compound 2 concentration 0.03906 µM | -0.0325 | -0.0312 | -0.0934 | -0.145 | -0.164 | -0.126 | -0.119 | 0.0102 | 0.288 | 0.312
DIPGX7, compound 2 concentration 0.07812 µM | 0.189 | 0.113 | 0.0974 | 0.0816 | -0.0134 | 0.0326 | 0.0363 | 0.178 | 0.344 | 0.313
DIPGX7, compound 2 concentration 0.15625 µM | 0.43 | 0.379 | 0.335 | 0.264 | 0.267 | 0.238 | 0.296 | 0.364 | 0.563 | 0.467
DIPGX7, compound 2 concentration 0.3125 µM | 0.611 | 0.641 | 0.589 | 0.561 | 0.514 | 0.483 | 0.563 | 0.627 | 0.793 | 0.747
DIPGX7, compound 2 concentration 0.625 µM | 0.781 | 0.802 | 0.8 | 0.791 | 0.779 | 0.782 | 0.841 | 0.884 | 0.941 | 0.918
DIPGX7, compound 2 concentration 1.25 µM | 0.874 | 0.865 | 0.876 | 0.884 | 0.893 | 0.906 | 0.934 | 0.96 | 0.982 | 0.983
DIPGX7, compound 2 concentration 5 µM | 0.937 | 0.933 | 0.938 | 0.962 | 0.972 | 0.98 | 0.99 | 0.999 | 1 | 1
DIPGX7, compound 2 concentration 20 µM | 0.977 | 0.987 | 0.989 | 0.994 | 0.998 | 1 | 1 | 1 | 1 | 1
iASTRO, compound 2 concentration 0.03906 µM | 0.0351 | 0.072 | 0.0628 | 0.082 | 0.097 | 0.097 | 0.102 | 0.0401 | -0.0539 | -0.0303
iASTRO, compound 2 concentration 0.07812 µM | 0.0868 | 0.0655 | 0.0861 | 0.0688 | 0.093 | 0.134 | 0.15 | 0.0961 | 0.0858 | 0.0424
iASTRO, compound 2 concentration 0.15625 µM | 0.123 | 0.128 | 0.113 | 0.0769 | 0.0999 | 0.115 | 0.0997 | 0.104 | 0.0381 | 0.0629
iASTRO, compound 2 concentration 0.3125 µM | 0.0584 | 0.0952 | 0.0549 | 0.0979 | 0.0838 | 0.126 | 0.158 | 0.146 | 0.164 | 0.196
iASTRO, compound 2 concentration 0.625 µM | 0.0444 | 0.0912 | 0.0357 | 0.0123 | 0.112 | 0.148 | 0.303 | 0.443 | 0.516 | 0.588
iASTRO, compound 2 concentration 1.25 µM | 0.21 | 0.214 | 0.279 | 0.319 | 0.44 | 0.568 | 0.731 | 0.784 | 0.811 | 0.836
iASTRO, compound 2 concentration 5 µM | 0.756 | 0.777 | 0.798 | 0.811 | 0.83 | 0.858 | 0.875 | 0.887 | 0.901 | 0.887
iASTRO, compound 2 concentration 20 µM | 0.822 | 0.806 | 0.821 | 0.841 | 0.849 | 0.873 | 0.889 | 0.901 | 0.9 | 0.909

CC1(C)OCCn2c1nc1c(N3CCOCC3)nc(-c3cnc(N)nc3)nc12 [GDC0084] + O=C(NOC[C@H](O)CO)c1ccc(F)c(F)c1Nc1ccc(I)cc1F [PD0325901]
growth inhibition
Conditions | compound 1 concentration 0.009766 µM | compound 1 concentration 0.01953 µM | compound 1 concentration 0.03906 µM | compound 1 concentration 0.07812 µM | compound 1 concentration 0.15625 µM | compound 1 concentration 0.3125 µM | compound 1 concentration 0.625 µM | compound 1 concentration 1.25 µM | compound 1 concentration 5 µM | compound 1 concentration 20 µM
DIPGX7, compound 2 concentration 0.03906 µM | -0.121 | -0.103 | -0.085 | 0.0493 | 0.217 | 0.56 | 0.762 | 0.886 | 0.945 | 0.998
DIPGX7, compound 2 concentration 0.07812 µM | -0.0496 | 9.09e-05 | 0.0209 | 0.0495 | 0.252 | 0.537 | 0.775 | 0.88 | 0.956 | 0.997
DIPGX7, compound 2 concentration 0.15625 µM | -0.0185 | 0.0149 | 0.038 | 0.0769 | 0.248 | 0.507 | 0.771 | 0.891 | 0.965 | 0.999
DIPGX7, compound 2 concentration 0.3125 µM | -0.0519 | 0.0198 | 0.0847 | 0.101 | 0.248 | 0.522 | 0.802 | 0.91 | 0.983 | 1
DIPGX7, compound 2 concentration 0.625 µM | 0.0193 | 0.0541 | 0.102 | 0.141 | 0.301 | 0.534 | 0.825 | 0.938 | 0.992 | 1
DIPGX7, compound 2 concentration 1.25 µM | 0.138 | 0.158 | 0.168 | 0.231 | 0.351 | 0.606 | 0.868 | 0.961 | 0.998 | 1
DIPGX7, compound 2 concentration 5 µM | 0.215 | 0.278 | 0.311 | 0.354 | 0.555 | 0.784 | 0.933 | 0.986 | 1 | 1
DIPGX7, compound 2 concentration 20 µM | 0.18 | 0.195 | 0.238 | 0.323 | 0.539 | 0.765 | 0.933 | 0.988 | 1 | 1
iASTRO, compound 2 concentration 0.03906 µM | 0.09 | 0.0454 | 0.118 | 0.094 | 0.0396 | 0.0144 | -0.00856 | 0.184 | 0.758 | 0.807
iASTRO, compound 2 concentration 0.07812 µM | 0.121 | 0.0878 | 0.134 | 0.118 | 0.109 | 0.12 | 0.0894 | 0.264 | 0.802 | 0.813
iASTRO, compound 2 concentration 0.15625 µM | 0.0937 | 0.147 | 0.167 | 0.0963 | 0.0973 | 0.0664 | 0.0992 | 0.309 | 0.815 | 0.825
iASTRO, compound 2 concentration 0.3125 µM | 0.149 | 0.11 | 0.135 | 0.176 | 0.144 | 0.0844 | 0.154 | 0.446 | 0.833 | 0.846
iASTRO, compound 2 concentration 0.625 µM | 0.15 | 0.125 | 0.146 | 0.159 | 0.128 | 0.129 | 0.317 | 0.675 | 0.878 | 0.884
iASTRO, compound 2 concentration 1.25 µM | 0.155 | 0.123 | 0.103 | 0.0682 | 0.108 | 0.207 | 0.459 | 0.766 | 0.878 | 0.893
iASTRO, compound 2 concentration 5 µM | 0.108 | 0.0234 | 0.0231 | 0.0442 | 0.0662 | 0.219 | 0.546 | 0.791 | 0.875 | 0.891
iASTRO, compound 2 concentration 20 µM | 0.14 | 0.0807 | 0.0709 | 0.0677 | 0.0926 | 0.24 | 0.627 | 0.821 | 0.881 | 0.902
